Read-outs that look alike come from different tables or passages of the source.

The test concerns TNFα. Briefly: Cot Monocyte TNFα Cell Based Assay. Conditions: for IC50/EC50 [nM]: EC50 (TNFα): second value of the cell IC50/EC50, TNFα by TR-FRET. In general terms: In TR-FRET formats the signal depends on donor and acceptor labels being close together.
The mark [1] stands for this setting: Homo sapiens, Monocyte, read-out: EC50 TNF, LPS-stimulated human monocytes, TNFα.

Turning to “6-(((6-fluoro-2-methylpyridin-3-yl)(1-((1- (trifluoromethyl)cyclopropyl)-1H-1,2,3- triazol-4-yl)methyl)amino)-8-(3-hydroxy- 3-methylbutyl-1-yl)-4- (neopentylamino)quinoline-3-carbonitrile [Example 982]”, the EC50 (commonly the concentration needed to bring the measured effect to its halfway point) (read-out: EC50 TNF, LPS-stimulated human monocytes, TNFα TR-FRET) was 1000 nM.
As for `CCN1CCC(n2cc(CNc3cc(Cl)c4ncc(C#N)c(Nc5ccc(F)c(Cl)c5)c4c3)nn2)CC1` [Comparative Example 1, reference compound], the “IC50/EC50 [nM]: EC50 (TNFα)” value (LPS-stimulated human monocytes) was found to be 310 nM.
On the same count and under the same terms, next, `Cn1cc(CNc2cc(Cl)c3ncc(C#N)c(Nc4ccc(F)c(Cl)c4)c3c2)nn1` [Comparative Example 3, reference compound]: more than 10000 nM.
With `CC(C)(C)N1CCC(n2cc([C@@H](Nc3cc(Cl)c4ncc(C#N)c(Nc5ccc(F)c(Cl)c5)c4c3)c3cccc4ncsc34)nn2)CC1` [Example 52, (S)-6-((benzo[d]thiazol-7-yl(1-(1-(tert-butyl)piperidin-4-yl)-1H-1,2,3-triazol-4-yl)methyl)amino)-8-chloro-4-((3-chloro-4-fluorophenyl)amino)quinoline-3-carbonitrile], the EC50 under setting [1] came out at 88 nM.
Turning to `CC(C)(C)N1CCC(n2cc([C@@H](Nc3cc(Cl)c4ncc(C#N)c(Nc5ccc(F)c(Cl)c5)c4c3)c3cccc4c3CCN4)nn2)CC1` [Example 60, (S)-6-(((1-(1-(tert-butyl)piperidin-4-yl)-1H-1,2,3-triazol-4-yl)(indolin-4-yl)methyl)amino)-8-chloro-4-((3-chloro-4-fluorophenyl)amino)quinoline-3-carbonitrile], the EC50 under setting [1] was found to be 131 nM.
Turning to `CC(C)(C)N1CCC(n2cc([C@@H](Nc3cc(Cl)c4ncc(C#N)c(Nc5ccc(F)c(Cl)c5)c4c3)c3ccc4ncsc4c3)nn2)CC1` [Example 63, (S)-6-((benzo[d]thiazol-6-yl(1-(1-(tert-butyl)pipcridin-4-yl)-1H-1,2,3-triazol-4-yl)methyl)amino)-8-chloro-4-((3-chloro-4-fluorophenyl)amino)quinoline-3-carbonitrile], the EC50 (read-out: EC50 TNF, LPS-stimulated human monocytes, TNFα) is 257 nM.
`CCN1CCC(n2cc([C@@H](Nc3cc(Cl)c4ncc(C#N)c(Nc5ccc(F)c(Cl)c5)c4c3)c3ccc4cccnc4c3)nn2)CC1` [Example 65, (S)-8-chloro-4-((3-chloro-4-fluorophenyl)amino)-6-(((1-(1-ethylpiperidin-4-yl)-1H-1,2,3-triazol-4-yl)(quinolin-7-yl)methyl)amino)quinoline-3-carbonitrile]: under setting [1], the EC50 was determined as 538 nM.
For the compound `CC(C)(C)CNc1c(C#N)cnc2c(C#N)cc(N[C@H](c3cn(C4CC4)nn3)c3cccc4c3CNC4=O)cc12` [Example 76, (S)-6-(((1-cyclopropyl-1H-1,2,3-triazol-4-yl)(1-oxoisoindolin-4-yl)methyl)amino)-4-(neopentylamino)quinoline-3,8-dicarbonitrile], under setting [1], the EC50 stood at 981 nM.
Turning to `[2H]C(Nc1cc(Cl)c2ncc(C#N)c(N[C@H](CC)c3ccccc3)c2c1)(c1cn(C2CC2)nn1)c1cc(F)cnc1C` (stereo partly drawn) [Example 113, 8-chloro-6-(((1-cyclopropyl-1H-1,2,3-triazol-4-yl)(5-fluoro-2-methylpyridin-3-yl)methyl-d)amino)-4-(((R)-1-phenylpropyl)amino)quinoline-3-carbonitrile], the EC50 under setting [1] came to 253 nM.
Same read-out and setting: as for `N#Cc1cnc2c(Cl)cc(N[C@H](c3cn(C4CC4)nn3)c3cnccc3Cl)cc2c1Nc1cnc(F)c(F)c1` [Example 133, (S)-8-chloro-6-(((4-chloropyridin-3-yl)(1-cyclopropyl-1H-1,2,3-triazol-4-yl)methyl)amino)-4-((5,6-difluoropyridin-3-yl)amino)quinoline-3-carbonitrile], the figure is 978 nM; as for `[2H][C@](Nc1cc(Cl)c2ncc(C#N)c(NCC(C)(C)C)c2c1)(c1ccc(F)nc1)c1c[nH]nn1` [Example 135, (S)-8-chloro-6-(((6-fluoropyridin-3-yl)(1H-1,2,3-triazol-4-yl)methyl-d)amino)-4-(neopentylamino)quinoline-3-carbonitrile], 660 nM.

Values taken from patent publication US11066414B2, “Cot modulators and methods of use thereof” (Gilead Sciences, Inc., priority 2015, dated 2021).
